According to US20260015344A1, “PAN-KRAS INHIBITORS” (Mirati Therapeutics, Inc., priority 2022, published 2026):

What was measured:
[1] = target: T1, KRas^G12A (Homo sapiens, UniProt P01116, G12A); assay: KRas Binding Assay (TR-FRET displacement), KRas G12A; conditions: TR-FRET tracer displacement
T1 construct: corresponding to amino acids 1-169, produced at Accelegan Inc; biotin (biotinylated); purchased Accelegan Inc
Method: (§1) This Example illustrates that exemplary compounds of the present invention bind to KRas and are capable of displacing a labeled tracer ligand occupying the KRas binding site. KRas^WT, KRas^G12A, KRas^G12C, KRas^G12D, KRas^G12R, KRas^G12S, KRas^G12V, KRas^G13D, or KRas^Q61H was used in the assay.
(§2) The ability of a compound to bind to KRas was measured using a TR-FRET displacement assay. Biotinylated KRas (corresponding to amino acids 1-169, produced at Accelegan Inc.) was incubated with custom made Cy5 labelled tracer, terbium streptavidin (Cisbio Inc.) and compound (1% DMSO final) in buffer (50 mM HEPES, pH 7.5, 5 mM MgCl2, 0.005% Tween-20 and 1 mM DTT). After a 60-minute incubation at room temperature, the reaction was measured using a BMG LABTECH CLARIO star Plus via TR-FRET. […] The POC values were fit to a 4-parameter IC50 equation and the IC50 value reported.

[2] = target: T2, KRas^G12S (Homo sapiens, UniProt P01116, G12S); assay: KRas Binding Assay (TR-FRET displacement), KRas G12S; conditions: TR-FRET tracer displacement
T2 construct: corresponding to amino acids 1-169, produced at Accelegan Inc; biotin (biotinylated); purchased Accelegan Inc
T2 sequence (P01116 1-169 isoform P01116-2 G12S): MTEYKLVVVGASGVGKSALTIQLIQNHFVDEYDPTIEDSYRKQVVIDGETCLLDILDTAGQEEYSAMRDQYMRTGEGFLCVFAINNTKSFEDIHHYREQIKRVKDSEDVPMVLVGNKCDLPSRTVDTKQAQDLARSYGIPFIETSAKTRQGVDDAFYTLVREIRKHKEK
Method: as §1, §2

[3] = tested on: KRas-mediated Phosphorylation of ERK in H2009 cells; assay: HTRF pERK assay, H2009 cells; type: cell-based; conditions: Homo sapiens, NCI-H2009; H2009 cells by column count (c8); may be PSN1; read-out: Inhibition (HTRF IC50 nM) of KRas-mediated Phosphorylation of ERK, H2009
[4] = target: T3, KRas^G12R (Homo sapiens, UniProt P01116, G12R); assay: KRas Binding Assay (TR-FRET displacement), KRas G12R; conditions: TR-FRET tracer displacement
T3 construct: corresponding to amino acids 1-169, produced at Accelegan Inc; biotin (biotinylated); purchased Accelegan Inc
T3 sequence (P01116 1-169 isoform P01116-2 G12R): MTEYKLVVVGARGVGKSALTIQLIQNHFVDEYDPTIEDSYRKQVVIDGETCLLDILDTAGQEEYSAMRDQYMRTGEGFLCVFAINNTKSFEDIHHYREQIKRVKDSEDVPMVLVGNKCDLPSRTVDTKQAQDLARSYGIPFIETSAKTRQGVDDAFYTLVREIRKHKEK
Method: as §1, §2

[5] = tested on: KRas-mediated Phosphorylation of ERK in AsPC-1 cells; assay: HTRF pERK assay, AsPC-1 cells; type: cell-based; conditions: Homo sapiens, ASPC1, 3 hrs compound incubation, read-out: Inhibition (HTRF IC50 nM) of KRas-mediated Phosphorylation of ERK, AsPC-1
Method: (§3) • Day 1: Seed 6,000 cells/well-25 μl/well in 384-well white solid bottom plate; RPM1_10% FBS.
(§4) • 1. To harvest cells from flask using 0.05% Trypsin/EDTA solution. Add 10 mL of media to stop trypsinizing. Pipette the cells into a conical bottom 50 mL centrifuge tube and centrifuge 5 min×1000 rpm. • 2. Re-suspend the cell pellet in media, take a cell count, and then adjust the cell density using fresh media. • 3. Seed 6,000 cells into cell culture plate with 50 μL media. The • 4. Incubate cell plate overnight in a 37° C., 5% CO2 incubator.
(§5) • 1. Use Tecan to complete the compound addition. Compounds start from 10 uM top, 3-fold dilution, and 10 doses. The final DMSO concentration is 0.8%. Dispensed 0.2 uM Trametinib as Min control. • 2. Incubate cell plate for 3 hrs in the incubator. Detection with Cisbio pERK HTRF Kit • 1. Dilute 1 volume of 4× lysis buffer with 3 volumes of deionized water. Then, add 100× the blocking reagent. Keep lysis buffer on the ice. • 2. At the end of the compound treatment, flick-off the media. • 3. Add 35 μL of lysis buffer per well using a Multidrop Combi. Then place on a plate agitator shaking at 300 rpm at 4° C. for 40 mins. • 4. Make up the HTRF antibody buffer. For each assay plate, mix 50 μL of d2-conjugate antibody with 950 μL of detection buffer. Similarly, mix 50 μL of Cryptate antibody with 950 μL of detection buffer. Then mix the two diluted antibodies together. • 5. Dispense 3.4 μL the antibody buffer to wells of an empty assay plate. Seal the plate and centrifuge plate 30 sec×1000 rpm. • 6. At the end of the 4° C. lysis, centrifuge the lysate plates 3 mins×1500 rpm. • 7. Use the Bravo to transfer 13.6 μL of lysate from cell culture plate to assay plate. Then incubate assay plate for 2 hrs at room temperature. • 8. At the end of incubation, read plate on the Envision after centrifuging plate 30 sec×1000 rpm.

[6] = tested on: KRas-mediated Phosphorylation of ERK in H727 cells; assay: HTRF pERK assay, H727 cells; type: cell-based; conditions: Homo sapiens, NCI-H727, 3 hrs compound incubation, read-out: Inhibition (HTRF IC50 nM) of KRas-mediated Phosphorylation of ERK, H727
Method: as §3, §4, §5

[7] = target: T4, KRas^G13D (Homo sapiens, UniProt P01116, G13D); assay: KRas Binding Assay (TR-FRET displacement), KRas G13D; conditions: TR-FRET tracer displacement
T4 construct: corresponding to amino acids 1-169, produced at Accelegan Inc; biotin (biotinylated); purchased Accelegan Inc
T4 sequence (P01116 1-169 isoform P01116-2 G13D): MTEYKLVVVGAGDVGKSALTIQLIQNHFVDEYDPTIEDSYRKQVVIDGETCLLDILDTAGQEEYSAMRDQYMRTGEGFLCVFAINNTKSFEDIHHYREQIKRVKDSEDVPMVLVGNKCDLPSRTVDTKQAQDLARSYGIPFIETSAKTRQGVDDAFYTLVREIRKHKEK
Method: as §1, §2

[8] = target: T5, KRas^G12D (Homo sapiens, UniProt P01116, G12D); assay: KRas Binding Assay (TR-FRET displacement), KRas G12D; conditions: TR-FRET tracer displacement
T5 construct: corresponding to amino acids 1-169, produced at Accelegan Inc; biotin (biotinylated); purchased Accelegan Inc
T5 sequence (P01116 1-169 isoform P01116-2 G12D): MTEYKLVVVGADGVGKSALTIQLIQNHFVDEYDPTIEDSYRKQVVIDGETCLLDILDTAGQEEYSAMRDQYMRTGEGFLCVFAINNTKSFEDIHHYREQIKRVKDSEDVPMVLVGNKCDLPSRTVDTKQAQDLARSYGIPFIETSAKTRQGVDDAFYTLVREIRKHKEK
Method: as §1, §2

[9] = target: T6, KRas^Q61H (Homo sapiens, UniProt P01116, Q61H); assay: KRas Binding Assay (TR-FRET displacement), KRas Q61H; conditions: TR-FRET tracer displacement
T6 construct: corresponding to amino acids 1-169, produced at Accelegan Inc; biotin (biotinylated); purchased Accelegan Inc
T6 sequence (P01116 1-169 isoform P01116-2 Q61H): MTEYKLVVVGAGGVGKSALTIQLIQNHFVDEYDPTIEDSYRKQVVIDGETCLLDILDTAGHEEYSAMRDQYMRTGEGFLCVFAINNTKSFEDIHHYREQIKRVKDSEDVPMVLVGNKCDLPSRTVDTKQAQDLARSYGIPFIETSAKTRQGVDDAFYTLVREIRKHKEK
Method: as §1, §2

[10] = tested on: KRas-mediated Phosphorylation of ERK in MKN1 cells; assay: HTRF pERK assay, MKN1 cells; type: cell-based; conditions: Homo sapiens, MKN-1, 3 hour compound incubation, read-out: Inhibition (HTRF IC50 nM) of KRas-mediated Phosphorylation of ERK, MKN1
Method: Cisbio HTRF Advanced pERK Assay Catalog #64AERPEH • Cells: MKN1, PSN1
as §3

[11] = target: T7, KRas^G12C (Homo sapiens, UniProt P01116, G12C); assay: KRas Binding Assay (TR-FRET displacement), KRas G12C; conditions: TR-FRET tracer displacement
T7 construct: corresponding to amino acids 1-169, produced at Accelegan Inc; biotin (biotinylated); purchased Accelegan Inc
T7 sequence (P01116 1-169 isoform P01116-2 G12C): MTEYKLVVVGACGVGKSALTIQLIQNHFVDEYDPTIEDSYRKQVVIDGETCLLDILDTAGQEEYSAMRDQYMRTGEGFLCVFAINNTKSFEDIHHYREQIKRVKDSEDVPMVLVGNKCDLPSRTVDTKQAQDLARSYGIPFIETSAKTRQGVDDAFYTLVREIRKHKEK
Method: as §1, §2

[12] = target: T8, KRas^G12V (Homo sapiens, UniProt P01116, G12V); assay: KRas Binding Assay (TR-FRET displacement), KRas G12V; conditions: TR-FRET tracer displacement
T8 construct: corresponding to amino acids 1-169, produced at Accelegan Inc; biotin (biotinylated); purchased Accelegan Inc
T8 sequence (P01116 1-169 isoform P01116-2 G12V): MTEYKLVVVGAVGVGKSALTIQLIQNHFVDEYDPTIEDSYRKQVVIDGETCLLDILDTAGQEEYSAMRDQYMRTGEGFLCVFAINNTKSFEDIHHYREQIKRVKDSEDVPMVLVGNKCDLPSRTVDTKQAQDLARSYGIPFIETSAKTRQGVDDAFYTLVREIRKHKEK
Method: as §1, §2

[13] = target: T9, KRas^WT (Homo sapiens, UniProt P01116); assay: KRas Binding Assay (TR-FRET displacement), KRas WT; conditions: TR-FRET tracer displacement
T9 construct: corresponding to amino acids 1-169, produced at Accelegan Inc; biotin (biotinylated); purchased Accelegan Inc
T9 sequence (P01116 1-169 isoform P01116-2): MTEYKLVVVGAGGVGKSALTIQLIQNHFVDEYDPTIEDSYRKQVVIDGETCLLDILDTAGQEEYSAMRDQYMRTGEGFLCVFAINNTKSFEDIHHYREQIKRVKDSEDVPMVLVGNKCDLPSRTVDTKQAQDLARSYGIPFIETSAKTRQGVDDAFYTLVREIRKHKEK
Method: as §1, §2

[14] = tested on: KRas-mediated Phosphorylation of ERK in H358 cells; assay: HTRF pERK assay, H358 cells; type: cell-based; conditions: Homo sapiens, NCI-H358, 3 hrs compound incubation, read-out: Inhibition (HTRF IC50 nM) of KRas-mediated Phosphorylation of ERK, H358
Method: as §3, §4
as §5, with “Similarly, mix 50 μL of Cryptate antibody with 950 μL of detection buffer. Then mix the two diluted antibodies together. • 5. Dispense 3.4 μL the antibody buffer to wells of an empty assay plate. Seal the plate and centrifuge plate 30 sec×1000 rpm. • 6. At the end of the 4° C. lysis, centrifuge the lysate plates 3 mins×1500 rpm. • 7. Use the Bravo to transfer 13.6 μL of lysate from cell culture plate to assay plate. Then incubate assay plate for 2 hrs at room temperature. • 8.” left out

[15] = tested on: KRas-mediated Phosphorylation of ERK in A549 cells; assay: HTRF pERK assay, A549 cells; type: cell-based; conditions: Homo sapiens, 3 hrs compound incubation, read-out: Inhibition (HTRF IC50 nM) of KRas-mediated Phosphorylation of ERK, A549
Method: as §3, §4
as §5, with “Similarly, mix 50 μL of Cryptate antibody with 950 μL of detection buffer. Then mix the two diluted antibodies together. • 5. Dispense 3.4 μL the antibody buffer to wells of an empty assay plate. Seal the plate and centrifuge plate 30 sec×1000 rpm. • 6. At the end of the 4° C. lysis, centrifuge the lysate plates 3 mins×1500 rpm. • 7. Use the Bravo to transfer 13.6 μL of lysate from cell culture plate to assay plate. Then incubate assay plate for 2 hrs at room temperature. • 8.” left out

[16] = tested on: KRas-mediated Phosphorylation of ERK in HCT116 cells; assay: HTRF pERK assay, HCT116 cells; type: cell-based; conditions: Homo sapiens, HCT-116, 3 hrs compound incubation, read-out: Inhibition (HTRF IC50 nM) of KRas-mediated Phosphorylation of ERK, HCT116
Method: as §3, §4
as §5, with “Similarly, mix 50 μL of Cryptate antibody with 950 μL of detection buffer. Then mix the two diluted antibodies together. • 5. Dispense 3.4 μL the antibody buffer to wells of an empty assay plate. Seal the plate and centrifuge plate 30 sec×1000 rpm. • 6. At the end of the 4° C. lysis, centrifuge the lysate plates 3 mins×1500 rpm. • 7. Use the Bravo to transfer 13.6 μL of lysate from cell culture plate to assay plate. Then incubate assay plate for 2 hrs at room temperature. • 8.” left out

[17] = tested on: KRas-mediated Phosphorylation of ERK in H460 cells; assay: HTRF pERK assay, H460 cells; type: cell-based; conditions: Homo sapiens, NCI-H460, 3 hrs compound incubation, read-out: Inhibition (HTRF IC50 nM) of KRas-mediated Phosphorylation of ERK, H460
Method: as §3, §4
as §5, with “Similarly, mix 50 μL of Cryptate antibody with 950 μL of detection buffer. Then mix the two diluted antibodies together. • 5. Dispense 3.4 μL the antibody buffer to wells of an empty assay plate. Seal the plate and centrifuge plate 30 sec×1000 rpm. • 6. At the end of the 4° C. lysis, centrifuge the lysate plates 3 mins×1500 rpm. • 7. Use the Bravo to transfer 13.6 μL of lysate from cell culture plate to assay plate. Then incubate assay plate for 2 hrs at room temperature. • 8.” left out

T1 sequence (P01116 1-169 isoform P01116-2 G12A): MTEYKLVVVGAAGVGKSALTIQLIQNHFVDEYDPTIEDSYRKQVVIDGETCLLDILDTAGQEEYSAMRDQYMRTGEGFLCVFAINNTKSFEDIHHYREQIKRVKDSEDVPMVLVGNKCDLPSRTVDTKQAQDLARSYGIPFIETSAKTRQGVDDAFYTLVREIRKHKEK

IC50 [1] [nM]	IC50 [2] [nM]	IC50 [3] [nM]	IC50 [4] [nM]	IC50 [5] [nM]	IC50 [6] [nM]	IC50 [7] [nM]	IC50 [8] [nM]	IC50 [9] [nM]	IC50 [10] [nM]	IC50 [11] [nM]	IC50 [12] [nM]	IC50 [13] [nM]	IC50 [14] [nM]	IC50 [15] [nM]	IC50 [16] [nM]	IC50 [17] [nM]	SMILES
82	90	> 10000	28	3740	6440	74	42	117	593	106	43	22	–	–	–	–	C[C@H](Oc1nc(-c2noc(C3(C)CCCc4sc(N)c(C#N)c43)n2)cc(N2CCC[C@@](C)(O)C2)n1)[C@@H]1CCCN1C (stereo partly drawn) [Example 1, 2-amino-4-(3-(6-((R)-3-hydroxy-3-methylpiperidin-1-yl)-2-((S)-1-((S)-1-methylpyrrolidin-2-yl)ethoxy)pyrimidin-4-yl)-1,2,4-oxadiazol-5-yl)-4-methyl-4,5,6,7-tetrahydrobenzo[b]thiophene-3-carbonitrile]
35	25	9300	< 2	898	3900	24	3	9	10	15	4	31	216	727	962	288	C[C@H](Oc1nc(-c2cc(C3(C)CCCc4sc(N)c(C#N)c43)sn2)cc(N2CCCC3(CNS(=O)(=O)N3)C2)n1)[C@@H]1CCCN1C (stereo partly drawn) [Example 10, 2-amino-4-(3-(6-(2,2-dioxido-2-thia-1,3,7-triazaspiro[4.5]decan-7-yl)-2-((S)-1-((S)-1-methylpyrrolidin-2-yl)ethoxy)pyrimidin-4-yl)isothiazol-5-yl)-4-methyl-4,5,6,7-tetrahydrobenzo[b]thiophene-3-carbonitrile]
–	–	> 10000	4	507	469	–	11	–	44	–	6	–	43	689	899	394	C[C@H](Oc1nc(-c2noc(C3(C)CCCc4sc(N)c(C#N)c43)n2)cc(N2CCOCC(C)(O)C2)n1)[C@@H]1CCCN1C (stereo partly drawn) [Example 13, 2-amino-4-(3-(6-(6-hydroxy-6-methyl-1,4-oxazepan-4-yl)-2-((S)-1-((S)-1-methylpyrrolidin-2-yl)ethoxy)pyrimidin-4-yl)-1,2,4-oxadiazol-5-yl)-4-methyl-4,5,6,7-tetrahydrobenzo[b]thiophene-3-carbonitrile]

SMILES	IC50 [1] [nM]	IC50 [2] [nM]	IC50 [3] [nM]	IC50 [4] [nM]	IC50 [5] [nM]	IC50 [6] [nM]	IC50 [7] [nM]	IC50 [8] [nM]	IC50 [9] [nM]	IC50 [10] [nM]	IC50 [11] [nM]	IC50 [12] [nM]	IC50 [13] [nM]	IC50 [14] [nM]	IC50 [15] [nM]	IC50 [16] [nM]	IC50 [17] [nM]
C[C@H](Oc1nc(-c2noc(C3(C)CCCc4sc(N)c(C#N)c43)n2)cc(N2C[C@H]3CC[C@@H](C2)N3)n1)[C@@H]1CCCN1C (stereo partly drawn) [Example 3, 4-(3-(6-((1R,5S)-3,8-diazabicyclo[3.2.1]octan-3-yl)-2-((S)-1-((S)-1-methylpyrrolidin-2-yl)ethoxy)pyrimidin-4-yl)-1,2,4-oxadiazol-5-yl)-2-amino-4-methyl-4,5,6,7-tetrahydrobenzo[b]thiophene-3-carbonitrile]	879	912	> 10000	728	5940	> 10000	315	18	656	> 10000	1060	767	195	–	–	–	–
